Experimental findings from ChEMBL document CHEMBL1201862, “PubChem BioAssay data set” (2004) are described below.

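Assay format: 96-well plates, 48-hour exposure. GI50: concentration for 50% inhibition of growth.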 The source made the active and inactive calls. Rule as the data show it: active = GI50 up to about 1.1 µM and inactive = higher. Positions of bridges follow the written chain, without caps; N, C: chain ends. Non-standard residues stand in square brackets, D forms with d. Residues, ends and D or L forms follow the SMILES beside them. *: point of attachment. Cbz = O=C(OCc1ccccc1)*; Aib = CC(C)(N)C(=O)O; OBn = c1ccc(CO*)cc1; βAla = NCCC(=O)O

Among the test systems are A549; EKVX; HCT-116; M14; MCF7; MDA-MB-231; MDA-N; Malme-3M; NCI-H226; OVCAR-4; OVCAR-8; RPMI-8226; SF-539; SK-MEL-28; SK-OV-3; SNB-19; SW-620; UACC-62; UO-31; UACC-257.
Holding throughout (experiment): growth of human tumour cells (NCI), 48 h

As for `CC1(C)NC(=O)C(NC(=O)C(CC(=O)OCc2ccccc2)NC(=O)OCc2ccccc2)CCCCNC(=O)CCNC1=O` (configuration not stated) (Cbz-D(OBn)K[Aib][βAla]; lactam 2-C; configuration not given here), the GI50 in the test on A549, with EKVX, with HCT-116, in the test on M14, with MCF7 and in the test on MDA-MB-231 was > 100 µM (inactive) in each case. For the same molecule, the GI50 with MDA-N, in the test with Malme-3M, in the test with NCI-H226, in the test with OVCAR-4, in the test on OVCAR-8 and with RPMI-8226 was > 100 µM (inactive) throughout. For the same molecule, the GI50 in the test on SF-539, in the test on SK-MEL-28, with SK-OV-3, in the test with SNB-19, with SW-620 and in the test on UACC-62 was > 100 µM (inactive) each time. For the same molecule, the GI50 in the test on UO-31 was > 100 µM (inactive).
As for `CC1SCc2nc3ccccc3n21` (configuration not stated), the GI50 with A549, in the test with EKVX, in the test on HCT-116, in the test with M14, in the test with MCF7 and with MDA-MB-231 was > 100 µM (inactive) in each case. The GI50 with MDA-N was > 100 µM (inactive); in the test with Malme-3M, > 100 µM (inactive); in the test with NCI-H226 it was 3.58 µM (inactive); in the test with OVCAR-4, > 100 µM (inactive); in the test with OVCAR-8 it was > 100 µM (inactive); in the test with RPMI-8226, > 100 µM (inactive). The GI50 with SF-539, with SK-MEL-28, with SK-OV-3, in the test with SNB-19, with UACC-257 and in the test on UACC-62 was > 100 µM (inactive) each time. The GI50 in the test with UO-31 was > 100 µM (inactive).
On to `O=c1nc2n3c4c(cccc4nc-2c(=O)[nH]1)CCC3`, for which the GI50 with A549 is > 100 µM (inactive); in the test on EKVX it was > 100 µM (inactive); with HCT-116 it was 47.5 µM (inactive); in the test on M14, > 100 µM (inactive); in the test with MCF7, 58.3 µM (inactive); in the test on MDA-MB-231, > 100 µM (inactive). Further, the GI50 with MDA-N was > 100 µM (inactive); in the test on Malme-3M, 21.6 µM (inactive); with NCI-H226, > 100 µM (inactive); with OVCAR-4 it was 86.7 µM (inactive); in the test on OVCAR-8 it was > 100 µM (inactive); in the test with RPMI-8226 it was > 100 µM (inactive). Besides, the GI50 in the test on SF-539, in the test with SK-MEL-28, in the test with SK-OV-3, in the test on SNB-19, in the test on SW-620 and in the test with UACC-257 was > 100 µM (inactive) in each case. Moreover, the GI50 with UACC-62 and in the test on UO-31 was > 100 µM (inactive) in each case.
Take `NS(=O)(=O)c1ccc(NC(=S)NC(=O)Nc2ccc(Cl)c(Cl)c2)cc1`: the GI50 was 14.4 µM (inactive) in the test on A549; 23.7 µM (inactive) with EKVX; 13.4 µM (inactive) with HCT-116; 7.33 µM (inactive) with M14; 15 µM (inactive) in the test with MCF7; 1.06 µM (active) with MDA-MB-231. For the same molecule, the GI50 with MDA-N was 14.6 µM (inactive); with Malme-3M it was 15.2 µM (inactive); with NCI-H226, 20.4 µM (inactive); with OVCAR-4, 14.9 µM (inactive); with OVCAR-8, 18.4 µM (inactive); with RPMI-8226, 19.6 µM (inactive). Further, the GI50 in the test with SF-539 was 18.2 µM (inactive); in the test on SK-MEL-28, 17.8 µM (inactive); with SK-OV-3, 18.5 µM (inactive); with SNB-19, 11.9 µM (inactive); with SW-620, 16.5 µM (inactive); in the test with UACC-257, 17.9 µM (inactive). Further, the GI50 is 13.5 µM (inactive) in the test with UACC-62 and 4.56 µM (inactive) in the test on UO-31.
Consider `Nc1nnnn1CCO`, for which the GI50 in the test on A549, with EKVX, in the test on HCT-116, in the test on M14, in the test on MCF7 and with MDA-MB-231 was > 100 µM (inactive) throughout. Besides, the GI50 with MDA-N, in the test on Malme-3M, in the test with NCI-H226, in the test with OVCAR-4, in the test with OVCAR-8 and with RPMI-8226 was > 100 µM (inactive) in each case. The GI50 with SF-539, with SK-MEL-28, in the test with SK-OV-3, in the test with SNB-19, with SW-620 and with UACC-257 was > 100 µM (inactive) throughout. The GI50 in the test with UACC-62 and with UO-31 was > 100 µM (inactive) in each case.
`CC[C@H](C)C1=C(OC(C)=O)[N@+]2([O-])Oc3ccc(-c4c(OC(C)=O)c(OC(C)=O)c(-c5ccc(OC(C)=O)cc5)c(OC(C)=O)c4OC(C)=O)cc3O[C@]2([C@@H](C)CC)C(=O)N1OC(C)=O`: the GI50 is 12.7 µM (inactive) in the test with A549; 5.45 µM (inactive) with EKVX; 15.2 µM (inactive) in the test on HCT-116; 16.9 µM (inactive) with M14; 17.5 µM (inactive) with MCF7; 23.9 µM (inactive) in the test on MDA-MB-231. For the same molecule, the GI50 with MDA-N is 9.79 µM (inactive); in the test with Malme-3M it was 15.2 µM (inactive); with NCI-H226, 17.6 µM (inactive); in the test on OVCAR-4 it was 12.2 µM (inactive); with OVCAR-8 it was 11.5 µM (inactive); in the test with RPMI-8226 it was 9.2 µM (inactive). Moreover, the GI50 in the test with SF-539 was 11.2 µM (inactive); in the test on SK-MEL-28, 12.2 µM (inactive); in the test on SK-OV-3, 12.7 µM (inactive); in the test with SNB-19, 13.7 µM (inactive); in the test with SW-620 it was 13 µM (inactive); in the test with UACC-257, 13.7 µM (inactive). Also, the values for the GI50 with UACC-62 and in the test on UO-31 were 9.46 µM (inactive) and 21.4 µM (inactive), respectively.
For `CC(C)CC(=O)OC[n+]1cccc(-c2c(COC(=O)NC(C)C)c(COC(=O)NC(C)C)c3n2CCC3)c1`, the GI50 with A549 is 79.1 µM (inactive); in the test with EKVX, > 100 µM (inactive); with HCT-116, 44 µM (inactive); with M14 it was 61.4 µM (inactive); in the test on MCF7 it was 45.1 µM (inactive); in the test on MDA-MB-231, 37.4 µM (inactive). Further, the GI50 in the test on MDA-N is > 100 µM (inactive); in the test on Malme-3M, 83.6 µM (inactive); in the test on NCI-H226, > 100 µM (inactive); in the test on OVCAR-4, 38.5 µM (inactive); in the test on OVCAR-8, 48.8 µM (inactive); in the test with RPMI-8226, 15.2 µM (inactive). Further, the GI50 in the test with SF-539 was 37.5 µM (inactive); with SK-MEL-28 it was > 100 µM (inactive); in the test on SK-OV-3, 55.3 µM (inactive); in the test on SNB-19, > 100 µM (inactive); with SW-620 it was 51.1 µM (inactive); with UACC-257, > 100 µM (inactive). Moreover, the GI50 in the test with UACC-62 was 25.6 µM (inactive); in the test with UO-31 it was 31.3 µM (inactive).
`COc1ccc(C(Nc2ccccn2)c2cc(C(C)(C)C)cc(C(C)(C)C)c2O)cc1` (configuration not stated): the GI50 in the test on A549 is 30 µM (inactive); in the test with EKVX, 36 µM (inactive); in the test on HCT-116, 12.6 µM (inactive); in the test with M14, 16.4 µM (inactive); with MCF7, 16.2 µM (inactive); in the test with MDA-MB-231, 33.4 µM (inactive). The GI50 with MDA-N is 20.7 µM (inactive); in the test with Malme-3M, 10.4 µM (inactive); in the test with NCI-H226, 21.3 µM (inactive); in the test on OVCAR-4, 34.4 µM (inactive); with OVCAR-8, 43.4 µM (inactive); in the test with RPMI-8226, 23.1 µM (inactive). For the same molecule, the GI50 is 48.1 µM (inactive) with SF-539; 50.4 µM (inactive) with SK-MEL-28; 19.5 µM (inactive) in the test on SK-OV-3; 61 µM (inactive) with SNB-19; 19.2 µM (inactive) in the test with SW-620; 26.2 µM (inactive) in the test on UACC-257. Also, the figures for the GI50 with UACC-62 and with UO-31 were 17 µM (inactive) and 29.9 µM (inactive), respectively.
For `O=c1[nH]c2nc3ccccc3c(=O)n2/c1=C/c1ccco1`, the GI50 was > 100 µM (inactive) in the test on A549; > 100 µM (inactive) with EKVX; > 100 µM (inactive) in the test with HCT-116; > 100 µM (inactive) with M14; 4.2 µM (inactive) in the test with MCF7; > 100 µM (inactive) in the test with MDA-MB-231. For the same molecule, the GI50 in the test on MDA-N, with Malme-3M, in the test on NCI-H226, in the test on OVCAR-4, in the test with OVCAR-8 and in the test on RPMI-8226 was > 100 µM (inactive) throughout. The GI50 in the test with SF-539, in the test with SK-MEL-28, with SK-OV-3, in the test on SNB-19, in the test with SW-620 and in the test with UACC-257 was > 100 µM (inactive) in each case. For the same molecule, the GI50 with UACC-62 and in the test with UO-31 was > 100 µM (inactive) throughout.
As for `C=C(Cl)C(C)(Cl)CCC(Br)C(C)(C)Cl` (configuration not stated), the GI50 with A549 was 29.9 µM (inactive); in the test on EKVX, 47.2 µM (inactive); with HCT-116, 15.2 µM (inactive); in the test with M14 it was 20 µM (inactive); in the test on MCF7 it was 16.6 µM (inactive); in the test on MDA-MB-231, 15.2 µM (inactive). The GI50 was 15.8 µM (inactive) in the test with MDA-N; 17.1 µM (inactive) with Malme-3M; 41.8 µM (inactive) in the test on NCI-H226; 16.2 µM (inactive) with OVCAR-4; 13.2 µM (inactive) with RPMI-8226; 27.8 µM (inactive) in the test on SF-539. In addition, the GI50 with SK-MEL-28 is 21.2 µM (inactive); with SK-OV-3, 12.7 µM (inactive); in the test with SNB-19 it was 51.5 µM (inactive); in the test on SW-620, 16.9 µM (inactive); with UACC-257, 15.9 µM (inactive); in the test with UACC-62, 14.9 µM (inactive). For the same molecule, the GI50 with UO-31 was 15.4 µM (inactive).
